According to BindingDB's records for PubMed 37939861 (Hebei Normal University):
pIC50: −log10 of the molar value.

Test: Inhibition of PCSK9 transcriptional activity in human HepG2 cells by luciferase reporter based assay

| Compound | pIC50 |
| --- | --- |
| CCOC(=O)c1ccc2nc(N3CCN(NC(=O)c4ccc(Cl)c(Cl)c4)CC3)sc2c1 | 5.19 |
| CC(C)(C)OC(=O)N1CCN(Cc2ccc3nc(NC(=O)c4ccc(S(=O)(=O)NCCC#N)cc4)sc3c2)CC1 | 5.40 |
